“Also recorded” adds a separate entry of the source.

In the first assay the test system is protein kinase. Briefly: HTS ATP-utilizing enzyme assay, off-chip mobility-shift format (Caliper HTS 250). In kind it is biochemical, human.
Conditions: not given
The essentials:
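Kinase reactions ran 2.5 h at 20 to 22 °C with test compound at 10 μM, in a HEPES pH 7.5 master buffer containing Triton X-100 and BSA. Peptide substrate and phosphorylated product separated by mobility shift; inhibition normalized to DMSO (0%) and EDTA (100%) controls, with three-sigma thresholds for hits.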
`COc1ccccc1-n1c(SCCCCc2ccccc2)nnc1-c1cccc(N(C)C)c1`: the “protein kinase against which the compound exhibits inhibitory activity (Table 3)” value is given as “MAPKAPK-3”.

Staying with this assay, now noted: kinase(s) for which the compound exhibits protein kinase inhibitory activity; test compound 10 μM; active = greater than three-sigma from the mean activity of inactive compounds.
Consider `CCn1c(SCC(=O)c2cccs2)nnc1-c1ccc(O)cc1`, for which the Kinase entry is “MSK1 and MSK2 and GSK3-β”.
The same measure, in the same setting: as for `Cn1c(CNc2nc(-c3ccccc3)cs2)nnc1SCC(N)=O`, the entry is “FYN”; as for `Cn1c(SCC(=O)N2c3ccccc3Sc3ccccc32)nnc1-c1cc2ccccc2cc1O`, “AURORA-A”.
With `CCOC(=O)CSc1nnc(-c2ccccc2OC)n1C` [ethyl 2-(5-(2-methoxyphenyl)-4-methyl-4H-1,2,4-triazol-3-ylthio)acetate], the Kinase result is “AURORA-A and FYN”.
The same measure, in the same setting: as for `O=C(O)CSc1nnc(-c2ccc(O)cc2)n1-c1ccccc1` [2-(5-(4-hydroxyphenyl)-4-phenyl-4H-1,2,4-triazol-3-ylthio)acetic acid], the entry is “GSK3-β; also recorded: GSK3-α”.
With `CCn1c(SCC(=O)Nc2cc(C)ccc2OC)nnc1-c1ccc(S(=O)(=O)N2CCCCCC2)cc1`, the Kinase result is listed as “DAPK1”.
Still for that read-out and setting: the value for `O=C(CSc1nnc(-c2ccc(O)cc2)n1Cc1ccco1)N1CCc2ccccc2C1` was “GSK3-β and GSK3-α and SRC”; that for `CCc1ccccc1NC(=O)CSc1nnc(COc2ccc(Cl)cc2)n1C` was “PDGFRR-α”.
The same measure, in the same setting: the value for `Cc1ccc(NCc2nnc(S)n2CC2CCCO2)cc1Cl` (centres unmarked) was “GSK3-β; also recorded: GSK3-α”; that for `Cc1cc(NC(=O)CSc2nnc(-c3ccc(O)cc3)n2C)ccc1NC(=O)c1ccccc1C` was “GSK3-β; also recorded: GSK3-α”; that for `Cn1c(SCC(=O)N2CCc3ccccc32)nnc1-c1ccc(N)cc1` was “MAPKAPK-2”.
On to `O=C(CSc1nnc(-c2ccncc2)n1Cc1ccco1)Nc1ccccc1`, for which the Kinase entry was “SRC and GSK3-α and AKT3”.
The same measure, in the same setting: the value for `CCc1cccc(C)c1NC(=O)CSc1nnc(CNc2ccc(Cl)cc2)n1CC` was “LCK”.
As to `CCC(=O)Nc1cc(NC(=O)CSc2nnc(-c3ccc(O)cc3)n2CC)ccc1C`, the Kinase entry was “SGK1”.
Still for that read-out and setting: as for `Cc1ccc(NCc2nnc(S)n2-c2ccc(Cl)cc2)cc1` [5-((p-toluidino)methyl)-4-(4-chlorophenyl)-4H-1,2,4-triazole-3-thiol], the entry is “PAK2 and GSK3-α”; as for `CNC(=O)CSc1nnc(-c2cc3ccccc3cc2O)n1C`, “FYN”; as for `COc1ccc(-n2c(SCC(=O)O)nnc2-c2cccnc2)cc1`, “AURORA-A”.
Same read-out and setting: as for `Cn1c(CNc2cccc(Cl)c2)nnc1SCC#N`, the entry is “AURORA-A”; as for `Sc1nnc(C2CCCCC2)n1-c1cccc(Cl)c1` [4-(3-chlorophenyl)-5-cyclohexyl-4H-1,2,4-triazole-3-thiol], “AURORA-A”.
Turning to `O=C(CSc1nnc(CSc2nc3ccccc3s2)n1-c1ccccc1)NCCO`, the Kinase entry is “FYN”.
Consider `O=C(CSc1nnc(-c2ccc(O)cc2)n1Cc1ccco1)Nc1nc2c(s1)CCCC2`, for which the Kinase entry is on record as “GSK3-β; also recorded: GSK3-α”.
The same measure, in the same setting: the value for `O=C(CSc1nnc(-c2ccc(O)cc2)n1Cc1ccccc1)OC1CCCCC1` was “GSK3-α; also recorded: GSK3-β”; that for `Cn1c(SCC(=O)c2ccccc2)nnc1-c1ccc(O)cc1` was “GSK3-β and GSK3-α and MSK1”.
Still for that read-out and setting: the value for `Cc1ccc([N+](=O)[O-])cc1NC(=O)CSc1nnc(-c2ccc(O)cc2)n1C` was “GSK3-β; also recorded: GSK3-α”; that for `CCc1ccc(OCc2nnc(S)n2Cc2ccccc2)cc1` [4-benzyl-5-((4-ethylphenoxy)methyl)-4H-1,2,4-triazole-3-thiol] was “AKT1”; that for `O=C(CSc1nnc(CSc2nc3ccccc3s2)n1-c1ccccc1)NCCN1CCOCC1` was “CSK”.
Same read-out and setting: the value for `COc1ccc(-c2nnc(SCC(=O)OCc3ccccc3)n2-c2ccc(OC)cc2)cc1` [benzyl 2-(4,5-bis(4-methoxyphenyl)-4H-1,2,4-triazol-3-ylthio)acetate] was “AKT1”; that for `COCCn1c(SCC(=O)c2ccccc2)nnc1-c1ccc(OC)cc1` was “AKT1”; that for `COCCn1c(SCC(=O)Nc2ccc(F)cc2)nnc1-c1ccncc1` was “FYN”.
Regarding `Cc1nnc(SCC(=O)Nc2cccc(Cl)c2)n1C` [N-(3-chlorophenyl)-2-(4,5-dimethyl-4H-1,2,4-triazol-3-ylthio)acetamide], the Kinase result is listed as “DAPK1”.
Take `COC(=O)c1ccccc1NC(=O)CSc1nnc(-c2ccccc2O)n1CCc1ccccc1`: the Kinase result is listed as “AURORA-A”.
The same measure, in the same setting: the value for `CN(C)CCCn1c(SCC(=O)NCc2ccco2)nnc1-c1ccncc1` was “PDGFRR-α and PAK2”.
Take `COc1ccc(-c2nnc(SCC(=O)OC3CCCCCC3)n2-c2cccc(C(F)(F)F)c2)cc1`: the Kinase entry is “FLT-3”.
Still for that read-out and setting: as for `O=[N+]([O-])c1ccc(Sc2nnc(COc3ccccc3)n2-c2ccccc2)c2cccnc12` [8-nitro-5-(5-(phenoxymethyl)-4-phenyl-4H-1,2,4-triazol-3-ylthio)quinoline], the entry is “FLT-3; also recorded: PDGFRR-α”.

Still in this assay, the particulars now being: test compound 10 μM; active = activity greater than three-sigma from the mean of the predominately inactive population for that enzyme.
For `FC(F)(F)Oc1ccc(-c2nnc(SCC3CC3)[nH]2)cc1` [3-(cyclopropylmethylthio)-5-(4-(trifluoromethoxy)phenyl)-4H-1,2,4-triazole], the “protein kinase against which the compound exhibits inhibitory activity (Table 3)” value is “FLT-3; also recorded: AURORA-A”.
On the same count and under the same terms, as for `c1ccc(CCn2c(SCc3ccccc3)nnc2-c2cccnc2)cc1` [3-(5-(benzylthio)-4-phenethyl-4H-1,2,4-triazol-3-yl)pyridine], the entry is “MSK1”; as for `Cc1ccc(CSc2nnc(-c3ccncc3)n2-c2ccccc2)cc1` [4-(5-(4-methylbenzylthio)-4-phenyl-4H-1,2,4-triazol-3-yl)pyridine], “AURORA-A”.
Regarding `CCOC(=O)c1ccc(CSc2nnc(-c3cccc(C)c3)[nH]2)o1` [ethyl 5-((5-m-tolyl-4H-1,2,4-triazol-3-ylthio)methyl)furan-2-carboxylate], the “protein kinase against which the compound exhibits inhibitory activity (Table 3)” value was “AURORA-A; also recorded: FLT-3; also recorded: CHEK2”.
As for `c1ccc(CCn2c(Cc3ccccc3)nnc2SCc2ccccc2)cc1` [3-benzyl-5-(benzylthio)-4-phenethyl-4H-1,2,4-triazole], the “protein kinase against which the compound exhibits inhibitory activity (Table 3)” value is on record as “AURORA-A”.
Take `COc1ccc(-n2c(COc3ccccc3OC)nnc2SCCC(=O)O)cc1`: the “protein kinase against which the compound exhibits inhibitory activity (Table 3)” value is reported as “CDK1”.
With `COCCn1c(SCCN2CCOCC2)nnc1-c1cc2ccccc2cc1O`, the “protein kinase against which the compound exhibits inhibitory activity (Table 3)” value is listed as “CHEK2”.
Same read-out and setting: the value for `COc1ccc(-c2nnc(SCC3CCCCC3)[nH]2)cc1` [3-(cyclohexylmethylthio)-5-(4-methoxyphenyl)-4H-1,2,4-triazole] was “AURORA-A; also recorded: c-TAK1”; that for `COc1ccc(-n2c(CNc3ccccc3Cl)nnc2SCc2ccc(Cl)cc2)cc1` was “MAPKALPK-2 and AKT1”.
With `OCC(O)CSc1nnc(-c2cccnc2)[nH]1` (centres unmarked) [3-(5-(pyridin-3-yl)-4H-1,2,4-triazol-3-ylthio)propane-1,2-diol], the “protein kinase against which the compound exhibits inhibitory activity (Table 3)” value is “AURORA-A”.
For `COc1ccccc1-n1c(SC(C)C(=O)Nc2cccc(NC(=O)c3ccco3)c2)nnc1-c1cccc(Cl)c1` (centres unmarked), the “protein kinase against which the compound exhibits inhibitory activity (Table 3)” value is given as “ROCK2”.
Same read-out and setting: the value for `Cn1c(SCc2ccccc2)nnc1-c1ccncc1` [4-(5-(benzylthio)-4-methyl-4H-1,2,4-triazol-3-yl)pyridine] was “AURORA-A”.

These data come from patent publication US20050288347A1, “Certain triazole-based compounds, compositions, and uses thereof” (priority 2004, published 2005).
